Experiment: xn = mol fraction of the nth substance listed
Settings: 100 kPa, Liquid; for speed of sound: Frequency=3 MHz, Single path-length method; for mass density: Vibrating tube method

CCCOCCO [2-propoxyethanol] + CCOC(=O)OCC
Settings	mass density, 298.15 K [kg/m3]	mass density, 303.15 K [kg/m3]	mass density, 308.15 K [kg/m3]	mass density, 313.15 K [kg/m3]	speed of sound, 298.15 K [m/s]	speed of sound, 303.15 K [m/s]	speed of sound, 308.15 K [m/s]	speed of sound, 313.15 K [m/s]	speed of sound, 318.15 K [m/s]
x2 = 0	907.16	902.74	898.32	893.89	1300.9	1283.7	1266.4	1249.2	1231.9
x2 = 0.0881	912.3	907.76	903.19	898.63	1289.1	1271.7	1254.2	1236.8	1219.3
x2 = 0.1907	918.42	913.74	909.01	904.33	1276.1	1258.2	1240.2	1222.3	1204.5
x2 = 0.2866	924.17	919.36	914.52	909.68	1264	1245.6	1227.1	1208.8	1190.6
x2 = 0.3906	930.48	925.55	920.55	915.57	1250.3	1231.5	1212.7	1194	1175.3
x2 = 0.484	936.17	931.11	926.02	920.91	1237.8	1218.7	1199.7	1180.7	1161.8
x2 = 0.5955	943.04	937.84	932.6	927.35	1223.4	1203.9	1184.6	1165.3	1146.2
x2 = 0.6907	948.97	943.65	938.31	932.94	1211.7	1192	1172.3	1152.9	1133.5
x2 = 0.7908	955.29	949.85	944.38	938.9	1200	1180.1	1160.2	1140.5	1121
x2 = 0.8939	961.94	956.4	950.83	945.23	1188.5	1168.3	1148.2	1128.3	1108.6
